In brackets after ≈: the same amount, converted by molar mass.
Assays:
Cyp17 = molecular target: T1, Cyp17 (Homo sapiens, UniProt P05093); assay: biochemical; settings: read-out: Cyp17 IC60 (nM)
T1 sequence (P05093 1-508): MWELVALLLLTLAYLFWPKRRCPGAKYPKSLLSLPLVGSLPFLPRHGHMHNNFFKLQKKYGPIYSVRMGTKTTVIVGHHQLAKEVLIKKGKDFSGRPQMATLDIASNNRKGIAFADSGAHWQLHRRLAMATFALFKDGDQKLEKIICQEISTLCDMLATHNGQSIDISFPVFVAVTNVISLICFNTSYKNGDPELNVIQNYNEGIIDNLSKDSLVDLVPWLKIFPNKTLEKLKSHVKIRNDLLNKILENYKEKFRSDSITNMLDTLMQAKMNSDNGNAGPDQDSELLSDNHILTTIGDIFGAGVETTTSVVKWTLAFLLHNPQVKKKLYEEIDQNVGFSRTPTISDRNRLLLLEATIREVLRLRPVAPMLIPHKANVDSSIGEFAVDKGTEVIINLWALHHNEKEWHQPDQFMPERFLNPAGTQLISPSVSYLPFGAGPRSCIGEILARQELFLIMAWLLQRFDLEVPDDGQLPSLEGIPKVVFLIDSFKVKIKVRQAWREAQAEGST

Cyp3A4 = Cyp3A4 (Homo sapiens, UniProt P08684); assay: in vitro enzyme profile: Cyp3A4 inhibition; type: in vitro ADME
[1] = tested on: cortisol and testosterone after ACTH stimulation; assay: elevation of cortisol and testosterone after ACTH stimulation in male Guinea pigs; type: in vivo, Guinea pig; settings: for Cortisol, plasma / testosterone, plasma / Cortisol, plasma, Mean / testosterone, plasma, Mean: 25 IU/kg ACTH + 100 mg/kg PO; for Cortisol, plasma, Mean: mean of 4 Guinea pigs
Protocol: Each animal was dosed by oral gavage according to the following table at −0.5 hr, and then dosed by intramuscular injection with ACTH 25 IU/kg at 0 hr.
Animals were sedated under general inhalant anesthesia (3% isoflurane) and blood samples were retrieved at 1, 2 and 4 hrs via saphenous vein. Blood aliquots (400 uL) were collected in tubes coated with K2-EDTA, mixed gently, then kept on ice and centrifuged at 2,000 g for 5 minutes at 4° C. within 15 minutes of collection. The plasma was then harvested and kept frozen at −80° C. until further processing.

Solubility = type: physicochemical
[2] = GPLM t1/2 (microsomal stability); type: in vitro ADME; settings: guinea pig, liver microsomes
Cyp2C9 = Cyp2C9 (Homo sapiens, UniProt P11712); assay: in vitro enzyme profile: Cyp2C9 inhibition; type: in vitro ADME
Cyp21 = molecular target: T2, Cyp21 (Homo sapiens, UniProt P08686); assay: in vitro enzyme profile: Cyp21 inhibition; type: biochemical
T2 sequence (P08686 1-495): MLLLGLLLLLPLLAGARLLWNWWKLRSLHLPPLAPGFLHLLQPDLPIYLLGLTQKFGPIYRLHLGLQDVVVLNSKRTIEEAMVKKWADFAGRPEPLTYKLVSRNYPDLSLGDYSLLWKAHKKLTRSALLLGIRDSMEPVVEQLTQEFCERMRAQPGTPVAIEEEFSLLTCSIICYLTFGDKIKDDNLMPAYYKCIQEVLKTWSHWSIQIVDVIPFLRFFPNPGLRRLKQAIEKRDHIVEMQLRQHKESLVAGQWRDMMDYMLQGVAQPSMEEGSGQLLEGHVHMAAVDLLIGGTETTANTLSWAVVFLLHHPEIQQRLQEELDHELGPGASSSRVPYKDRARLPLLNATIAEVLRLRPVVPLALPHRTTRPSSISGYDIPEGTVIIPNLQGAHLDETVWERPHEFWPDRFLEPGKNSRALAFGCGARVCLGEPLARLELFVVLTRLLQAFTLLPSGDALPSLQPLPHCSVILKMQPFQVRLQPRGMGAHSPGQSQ

Cyp11 = assay: in vitro enzyme profile: Cyp11 inhibition; type: biochemical
[3] = HLM t1/2 (microsomal stability); type: in vitro ADME; settings: human, liver microsomes
Cyp2D6 = Cyp2D6 (Homo sapiens, UniProt P10635); assay: in vitro enzyme profile: Cyp2D6 inhibition; type: in vitro ADME
[4] = male Guinea pigs, ACTH stimulation, 100 mg/kg PO, vs vehicle

Cyp2D6, sequence (P10635 whole entry): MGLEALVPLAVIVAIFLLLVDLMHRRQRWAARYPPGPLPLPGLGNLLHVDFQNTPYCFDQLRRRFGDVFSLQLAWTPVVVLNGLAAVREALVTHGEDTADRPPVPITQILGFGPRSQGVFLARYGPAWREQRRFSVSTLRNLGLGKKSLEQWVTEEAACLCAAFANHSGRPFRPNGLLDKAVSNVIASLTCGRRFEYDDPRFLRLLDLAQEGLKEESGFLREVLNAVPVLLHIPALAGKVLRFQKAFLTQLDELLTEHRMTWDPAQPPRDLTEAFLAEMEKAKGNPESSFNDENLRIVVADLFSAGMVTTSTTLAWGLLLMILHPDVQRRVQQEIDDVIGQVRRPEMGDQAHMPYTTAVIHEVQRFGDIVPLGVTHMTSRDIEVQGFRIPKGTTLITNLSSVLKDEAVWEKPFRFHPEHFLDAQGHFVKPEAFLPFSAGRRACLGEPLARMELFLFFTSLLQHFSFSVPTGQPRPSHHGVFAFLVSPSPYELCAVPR
Cyp2C9, sequence (P11712 whole entry): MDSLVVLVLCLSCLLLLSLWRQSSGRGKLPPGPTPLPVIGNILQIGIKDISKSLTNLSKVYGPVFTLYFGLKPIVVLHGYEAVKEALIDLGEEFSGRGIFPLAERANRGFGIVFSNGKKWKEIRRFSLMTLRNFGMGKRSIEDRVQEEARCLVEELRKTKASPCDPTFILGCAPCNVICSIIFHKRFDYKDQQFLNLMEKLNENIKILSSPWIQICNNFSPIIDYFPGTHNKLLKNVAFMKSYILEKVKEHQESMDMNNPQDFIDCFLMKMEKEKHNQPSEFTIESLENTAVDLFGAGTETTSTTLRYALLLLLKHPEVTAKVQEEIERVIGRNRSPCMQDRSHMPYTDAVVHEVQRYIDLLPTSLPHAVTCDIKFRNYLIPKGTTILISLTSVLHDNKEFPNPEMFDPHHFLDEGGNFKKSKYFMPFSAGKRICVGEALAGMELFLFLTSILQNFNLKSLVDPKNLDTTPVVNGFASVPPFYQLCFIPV
Cyp3A4, sequence (P08684 whole entry): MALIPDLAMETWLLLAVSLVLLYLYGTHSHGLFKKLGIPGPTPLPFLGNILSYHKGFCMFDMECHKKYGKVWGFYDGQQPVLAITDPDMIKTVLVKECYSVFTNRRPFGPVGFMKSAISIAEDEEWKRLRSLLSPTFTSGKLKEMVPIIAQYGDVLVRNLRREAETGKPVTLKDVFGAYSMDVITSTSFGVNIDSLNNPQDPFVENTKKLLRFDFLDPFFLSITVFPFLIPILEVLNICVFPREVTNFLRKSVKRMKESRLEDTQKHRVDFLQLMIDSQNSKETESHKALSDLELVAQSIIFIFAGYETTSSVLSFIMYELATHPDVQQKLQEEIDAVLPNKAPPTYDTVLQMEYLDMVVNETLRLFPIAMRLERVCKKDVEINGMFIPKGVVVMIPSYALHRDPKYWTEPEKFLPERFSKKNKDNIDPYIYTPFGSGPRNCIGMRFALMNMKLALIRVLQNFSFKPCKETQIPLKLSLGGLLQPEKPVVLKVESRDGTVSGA

Q: With `C[C@]12CC[C@H](O)CC1=CC[C@@H]1[C@@H]2CC[C@]2(C)C(c3cccnc3)=CC[C@@H]12` [abiraterone, (3S,8R,9S,10R,13S,14S)-10,13-dimethyl-17-(pyridin-3-yl)-2,3,4,7,8,9,10,11,12,13,14,15-dodecahydro-1H-cyclopenta[a]phenanthren-3-ol] as the molecule, how does the IC60 (Cyp17) read?
A: The IC60 was 1.78 nM.

Q: What about the “Cyp3A4 IC60” value (Cyp3A4) of the same molecule?
A: The value was 969 nM.

Q: What about the “Cortisol, plasma” value ([1]; Guinea pig#19, 1 hr) of the same molecule?
A: Its value is 692 ng/mL.

Q: What about the “testosterone, plasma” value ([1]; Guinea pig#19, 1 hr) of the same molecule?
A: Its value is “BQL”.

Q: What about the “Cortisol, plasma” value ([1]; Guinea pig#19, 2 hr) of the same molecule?
A: Its value is 574 ng/mL.

Q: And the “testosterone, plasma” value ([1]; Guinea pig#19, 2 hr)?
A: The value was “BQL”.

Q: And the “Cortisol, plasma” value ([1]; Guinea pig#19, 4 hr)?
A: The value was 320 ng/mL.

Q: What about the “testosterone, plasma” value ([1]; Guinea pig#19, 4 hr) of the same molecule?
A: Its value is 0.328 ng/mL.

Q: And the “Cortisol, plasma” value ([1]; Guinea pig#20, 1 hr)?
A: The value was 821 ng/mL.

Q: What about the “testosterone, plasma” value ([1]; Guinea pig#20, 1 hr) of the same molecule?
A: The value was “BQL”.

Q: What about the “Cortisol, plasma” value ([1]; Guinea pig#20, 2 hr) of the same molecule?
A: Its value is 720 ng/mL.

Q: And the “testosterone, plasma” value ([1]; Guinea pig#20, 2 hr)?
A: The value was 0.473 ng/mL.

Q: And the “Cortisol, plasma” value ([1]; Guinea pig#20, 4 hr)?
A: The value was 461 ng/mL.

Q: What about the “testosterone, plasma” value ([1]; Guinea pig#20, 4 hr) of the same molecule?
A: The value was “BQL”.

Q: And the “Cortisol, plasma” value ([1]; Guinea pig#21, 1 hr)?
A: The value was 659 ng/mL.

Q: What about the “testosterone, plasma” value ([1]; Guinea pig#21, 1 hr) of the same molecule?
A: Its value is “BQL”.

Q: What about the “Cortisol, plasma” value ([1]; Guinea pig#21, 2 hr) of the same molecule?
A: The value was 470 ng/mL.

Q: What about the “testosterone, plasma” value ([1]; Guinea pig#21, 2 hr) of the same molecule?
A: Its value is “BQL”.

Q: And the “Cortisol, plasma” value ([1]; Guinea pig#21, 4 hr)?
A: The value was 325 ng/mL.

Q: What about the “testosterone, plasma” value ([1]; Guinea pig#21, 4 hr) of the same molecule?
A: The value was “BQL”.

Q: What about the “Cortisol, plasma” value ([1]; Guinea pig#22, 1 hr) of the same molecule?
A: The value was 970 ng/mL.

Q: And the “testosterone, plasma” value ([1]; Guinea pig#22, 1 hr)?
A: The value was 0.501 ng/mL.

Q: What about the “Cortisol, plasma” value ([1]; Guinea pig#22, 2 hr) of the same molecule?
A: The value was 876 ng/mL.

Q: And the “testosterone, plasma” value ([1]; Guinea pig#22, 2 hr)?
A: Its value is 0.520 ng/mL.

Q: And the “Cortisol, plasma” value ([1]; Guinea pig#22, 4 hr)?
A: Its value is 529 ng/mL.

Q: What about the “testosterone, plasma” value ([1]; Guinea pig#22, 4 hr) of the same molecule?
A: The value was 0.461 ng/mL.

Q: What about the “effect on cortisol levels” value [1, 4] of the same molecule?
A: Its value is “significantly lower”.

Q: And the “effect on testosterone levels” value [1, 4]?
A: Its value is “significantly lower”.

Q: What about the “Cortisol, plasma, Mean” value ([1]; 1 hr) of the same molecule?
A: The value was 786 ng/mL.

Q: What about the “Cortisol, plasma, Mean” value ([1]; 2 hr) of the same molecule?
A: The value was 660 ng/mL.

Q: And the “Cortisol, plasma, Mean” value ([1]; 4 hr)?
A: The value was 409 ng/mL.

Q: What about the “testosterone, plasma, Mean” value ([1]; 1 hr) of the same molecule?
A: The value was 0.501 ng/mL.

Q: What about the “testosterone, plasma, Mean” value ([1]; 2 hr) of the same molecule?
A: Its value is 0.497 ng/mL.

Q: And the “testosterone, plasma, Mean” value ([1]; 4 hr)?
A: The value was 0.395 ng/mL.

Q: And the solubility (Solubility)?
A: Its solubility is 1 µM (≈ 0.35 µg/mL).

Q: What about the half-life [2] of the same molecule?
A: The half-life was 7.7 min.

Q: What about the “Cyp2C9 IC60” value (Cyp2C9) of the same molecule?
A: The value was 2000 nM.

Q: And the IC60 (Cyp21)?
A: Its IC60 is 1550 nM.

Q: What about the “Cyp11 IC60” value (Cyp11) of the same molecule?
A: The value was 430 nM.

Q: What about the half-life [3] of the same molecule?
A: Its half-life is 60 min.

Q: And the “Cyp2D6 IC60” value (Cyp2D6)?
A: The value was 2000 nM.
